Measured values: patent US20040106804A1 (RICHTER GEDEON VEGYESZETI GYAR RT., priority 2001, published 2004)

Conditions: speed depends on the conditions of the dehydration

With `OC(Cn1cncn1)(Cn1cncn1)c1ccc(F)cc1F` [monohydrate, 2-(2,4-Difluorophenyl)-1,3-bis(1,2,4-triazole-1-yl)-propane-2-ol Monohydrate] the “temperature at which the monohydrate is transformed into anhydrous fluconazole ("anhydrate")” value was 40-90 °C.
